Experimental data from patent US20200375943A1 (priority 2019, published 2020).
Where two headings read alike, the source gives them in different places.

Columns and labels:
SVCT2 [1] = target: T1, SVCT2 (Homo sapiens, UniProt Q9UGH3); set-up: endogenous in cells; host or cells: HTR-8/SVneo human trophoblast cell line; settings: cited from earlier work; for inhibitory action for LAA transporter SVCT2: HTR-8/SVneo cells; for uptake of LAA via SVCT2: trophoblast cells
Target sequence in this assay (Q9UGH3 whole entry): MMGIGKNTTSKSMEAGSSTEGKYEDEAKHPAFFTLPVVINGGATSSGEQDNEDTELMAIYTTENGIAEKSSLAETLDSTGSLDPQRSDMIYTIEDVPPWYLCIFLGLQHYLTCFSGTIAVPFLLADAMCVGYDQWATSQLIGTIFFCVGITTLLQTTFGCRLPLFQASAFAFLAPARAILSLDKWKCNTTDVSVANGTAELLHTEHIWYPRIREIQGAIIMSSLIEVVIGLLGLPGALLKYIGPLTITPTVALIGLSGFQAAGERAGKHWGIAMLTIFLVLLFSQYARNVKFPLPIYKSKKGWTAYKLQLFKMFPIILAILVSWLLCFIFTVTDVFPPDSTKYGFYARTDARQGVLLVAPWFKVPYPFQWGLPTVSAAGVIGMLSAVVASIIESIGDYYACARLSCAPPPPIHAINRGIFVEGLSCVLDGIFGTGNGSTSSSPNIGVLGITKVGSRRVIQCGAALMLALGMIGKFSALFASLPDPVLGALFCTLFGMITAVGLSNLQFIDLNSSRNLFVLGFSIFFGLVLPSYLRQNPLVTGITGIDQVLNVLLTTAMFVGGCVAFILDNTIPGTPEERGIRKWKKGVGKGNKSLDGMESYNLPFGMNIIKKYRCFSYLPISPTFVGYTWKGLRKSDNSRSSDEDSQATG

human leukemic cells = settings: bone marrows from 259 patients; cited from earlier work
leukemic blast cells = assay: Phase I/II clinical trial of LAA depletion alternating with LAA supplementation; type: in vivo, human
Source text: No. 12, Blood. 2000 (see Reference 9).
That is, in the example, a leukemia patient first received a chemotherapy and subsequently received the LAA supplementation. […] The noted sharp decline is much more precipitous than what can be observed with chemotherapy.
In the example, the significant improvement is also noted that there was a total of 8 out of 16 patients in the Phase I/II clinical trial responding (p=0.007).

sarcoma tumors = settings: oral gavage, cited from earlier work
[2] = cited from earlier work
SVCT2 [3] = target: T1, SVCT2; set-up: endogenous in cells; host or cells: bone marrow stromal cells (BMSCs); settings: 600 uM, BMSCs; cited from earlier work
Target sequence in this assay (Q9UGH3 whole entry, species assumed): as the sequence (Q9UGH3 whole entry) above

SVCT2 [4] = settings: 200 uM, cortical or cerebellar neurons; cited from earlier work
[5] = humans, oral; cited from earlier work
SVCT1(h) = target: T2, SVCT1(h) (Homo sapiens, UniProt Q9UHI7); settings: 50 uM, ascorbate 10-400 uM; cited from earlier work
T2 construct: expressed in transfected cells
T2 sequence (Q9UHI7 whole entry): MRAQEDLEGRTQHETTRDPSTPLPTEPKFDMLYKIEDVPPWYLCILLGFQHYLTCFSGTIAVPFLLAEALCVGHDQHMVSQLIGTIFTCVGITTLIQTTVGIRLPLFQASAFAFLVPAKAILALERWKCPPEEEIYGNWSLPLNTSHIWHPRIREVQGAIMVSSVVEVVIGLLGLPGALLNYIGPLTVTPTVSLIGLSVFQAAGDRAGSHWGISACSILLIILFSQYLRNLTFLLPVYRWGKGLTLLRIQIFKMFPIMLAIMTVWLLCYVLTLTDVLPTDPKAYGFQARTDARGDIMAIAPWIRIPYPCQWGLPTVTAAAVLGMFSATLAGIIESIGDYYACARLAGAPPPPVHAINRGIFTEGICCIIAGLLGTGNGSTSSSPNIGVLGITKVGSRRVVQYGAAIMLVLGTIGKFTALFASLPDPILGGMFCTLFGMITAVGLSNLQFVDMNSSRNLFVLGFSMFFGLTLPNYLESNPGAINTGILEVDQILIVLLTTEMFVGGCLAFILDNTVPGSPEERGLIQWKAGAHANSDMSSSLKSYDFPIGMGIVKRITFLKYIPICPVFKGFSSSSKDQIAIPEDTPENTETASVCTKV

## C[C@]12CC[C@@H]3c4ccc(O)cc4CC[C@H]3[C@@H]1CC[C@@H]2O [17β-estadiol]
SVCT2 [1]
  inhibitory action for LAA transporter SVCT2: very strong inhibitory action

## O=C1O[C@H]([C@@H](O)CO)C(O)=C1O [LAA, L-ascorbic acid]
Human leukemic cells
  patients whose leukemic cells had the requirement of LAA for growth: ~50%
Leukemic blast cells; LAA supplementation after chemotherapy (FIG. 3B)
  D-dimer test for massive cell lysis: sharp increase
Leukemic blast cells; Phase I/II clinical trial, 16 evaluated patients, p=0.007
  patients responding: 8 out of 16
Leukemic blast cells; after 10 days of LAA supplementation, relapse after cytotoxic chemotherapy (FIG. 3A)
  leukemic blast cells in peripheral blood: sharp decline
Leukemic blast cells; alternation of LAA supplementation and depletion, same patient (FIG. 2B)
  frequency of platelet transfusion: marked reduction in the frequency of platelet transfusion
Leukemic blast cells; during supplementation of LAA phase, intravenous, one patient (FIG. 2A)
  leukemic blast cell number (peripheral blood and bone marrow): decline in leukemic blast cell number
Leukemic blast cells; during supplementation of LAA phase, one patient (FIG. 2A)
  spleen size: decline in spleen size
Sarcoma tumors; 0.3 mg/kg/day, up to 24 weeks
  complete tumor regression, animals: 55%
Sarcoma tumors; 10 mg/kg/day
  tumor growth: tumor inhibition but no regression
Sarcoma tumors; 1 g/kg/day
  tumor growth: grew without sign of retardation
[2]; intravenous infusion
  peak concentrations without significant adverse effects: over 10 mMol
[2]; oral, up to 180 gram per day in divided doses
  blood levels: ≤ 0.2 mmol/L

## Cl.N=c1c[n+](N2CCOCC2)[n-]o1 [SIN-1, 3-(4-Morpholinyl) sydnonimine hydrochloride]
SVCT2 [3]
  decrease in LAA uptake: up to 40%

## O=C(O)Cc1ccccc1Nc1c(Cl)cccc1Cl [diclofenac]
SVCT2 [1]
  inhibitory action for LAA transporter SVCT2: very strong inhibitory action
  uptake of LAA via SVCT2: inhibit the uptake of LAA

## O=c1c(-c2ccc(O)cc2)coc2cc(O)cc(O)c12 [genistein]
SVCT2 [1]
  inhibitory action for LAA transporter SVCT2: very strong inhibitory action

## COc1ccc2c(c1)c(CC(=O)O)c(C)n2C(=O)c1ccc(Cl)cc1 [indomethacin]
SVCT2 [1]
  uptake of LAA via SVCT2: inhibit the uptake of LAA

## O=c1c(O)c(-c2ccc(O)c(O)c2)oc2cc(O)cc(O)c12 [quercetin]
SVCT2 [4]
  decrease of LAA transport SVCT2: 80%
[5]
  dose administered orally without side effects: 4 g
SVCT1(h)
  inhibition of LAA transporter SVCT1(h): about 80%
SVCT2 [1]
  inhibitory action for LAA transporter SVCT2: very strong inhibitory action
